What was measured:
[1] = molecular target: T1, PDE4B (Homo sapiens, UniProt Q07343); test: Protein degradation assay, western blot, PDE4B in A549 cells; assay type: cell-based; conditions: 24 h treatment, 'as high as about' = upper value for the group, read-out: PDE4B degradation relative to DMSO
T1 construct: endogenous in cells; host or cells: A549
How it was run: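 A549 cells were treated 24 h at 37 °C with compound (e.g., 10 nM–10 μM) or DMSO. PDE4B levels in whole-cell lysates were assessed by western blot with fluorescent secondary antibodies, using β-actin as loading control.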

[2] = test system: TNF-α; test: Cell-based TNF-α inhibition assay (LPS-induced PBMCs, Meso Scale); conditions: PBMC, PBMCs pretreated 1 h, LPS 100 ng/mL 18-24 h, percentage of stimulated DMSO control
How it was run: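 Thawed primary PBMCs (200,000 cells/well, RPMI 1640 with 10% FBS) were pretreated with compound for 1 h, then stimulated with 100 ng/mL LPS for 18–24 h. Supernatant TNF-α was measured by Meso Scale, and activity was expressed as percent inhibition relative to the stimulated DMSO control.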

[3] = test system: PDE4D, in particular, PDE4D short isoform; test: Protein degradation assay, western blot, PDE4D in A549 cells; assay type: cell-based; conditions: 24 h treatment, same conditions
Procedure: Example B2. Protein Degradation Assay
A549 cells were grown in RPMI 1640 media supplemented with 10% fetal bovine serum, streptomycin, and penicillin. The cells were plated in 6-well plates at 300,000 cells/well in the growth media. After overnight incubation, the cells were treated with DMSO (control) or a compound at predetermined concentrations (e.g., 10 nM, 100 nM, 1 μM, 3 μM, or 10 μM) for 24 h at 37° C. under 5% CO2. Whole cell extracts were prepared using an immunoprecipitation (IP) lysis buffer. The cells were washed once in PBS, and the cell pellets were resuspended in the IP lysis buffer and incubated for 15 min on ice. Cells debris was removed by centrifugation and the cleared whole cell lysates were transferred to new tubes for further analysis.
For a western blot analysis, the whole cell protein extracts were separated on 4-12% SDS-polyacrylamide gels, transferred to nitrocellulose, and probed with primary antibodies. Membranes were subsequently washed and probed with IRDYE® secondary antibodies. The signals were detected using an ODYSSEY® Imaging System. The antibodies used in the assay included anti-PDE4B antibody; anti-PDE4D antibodies (top, bottom, and short isoform); β-actin mouse monoclonal antibody; IRDYE® 680RD goat anti-rabbit antibody; and IRDYE® 800CW goat anti-mouse antibody. The compounds provided herein are PDE4 protein degraders.

T1 sequence (Q07343 whole entry): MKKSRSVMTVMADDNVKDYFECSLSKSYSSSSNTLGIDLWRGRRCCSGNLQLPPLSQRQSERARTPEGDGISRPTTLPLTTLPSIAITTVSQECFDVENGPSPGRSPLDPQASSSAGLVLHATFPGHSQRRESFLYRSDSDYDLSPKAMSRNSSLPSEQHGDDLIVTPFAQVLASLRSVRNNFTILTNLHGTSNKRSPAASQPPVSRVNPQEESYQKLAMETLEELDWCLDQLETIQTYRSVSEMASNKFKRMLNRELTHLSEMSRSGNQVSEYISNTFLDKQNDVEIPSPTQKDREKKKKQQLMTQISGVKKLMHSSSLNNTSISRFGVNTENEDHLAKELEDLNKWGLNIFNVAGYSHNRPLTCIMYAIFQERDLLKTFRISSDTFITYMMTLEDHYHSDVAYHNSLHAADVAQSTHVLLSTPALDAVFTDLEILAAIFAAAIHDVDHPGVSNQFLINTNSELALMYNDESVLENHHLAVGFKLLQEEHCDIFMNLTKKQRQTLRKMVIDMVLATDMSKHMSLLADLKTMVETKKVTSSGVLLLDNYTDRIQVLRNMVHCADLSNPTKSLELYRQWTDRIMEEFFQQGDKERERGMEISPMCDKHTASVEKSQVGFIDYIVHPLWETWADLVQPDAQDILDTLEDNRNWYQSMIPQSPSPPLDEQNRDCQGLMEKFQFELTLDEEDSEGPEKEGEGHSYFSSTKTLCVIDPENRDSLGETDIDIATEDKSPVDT

Compound	Dmax [1]	inhibition at 0.1 µM ([2]; compound concentration 0.1 μM)	inhibition at 1 µM ([2]; compound concentration 1 μM)	PDE4D degradation (in words) [3]
O=C1CCC(Nc2cccc(NC(=O)CN3CCN(CCCCOc4cc(C(=O)Nc5c(Cl)cncc5Cl)ccc4OC(F)F)CC3)c2)C(=O)N1 (stereo not shown) [Compound B25, N-(3,5-Dichloropyridin-4-yl)-4-(difluoromethoxy)-3-(4-(4-(2-((3-((2,6-dioxopiperidin-3-yl)amino)phenyl)amino)-2-oxoethyl)piperazin-1-yl)butoxy)benzamide]	≤ 70%	≥ 60%	≥ 60%	–
CCOc1cc([C@@H](CS(C)(=O)=O)N2C(=O)c3cccc(NC(C)=O)c3C2=O)ccc1OC [apremilast]	–	–	–	did not degradate the PDE4D
